# Assay results reported in patent EP0315782A2, “Method for the production of proteins” (priority 1987, dated 1989).
# Assays:
# [1] = system: Bowes-Melanoma-Zellen; conditions: Kooistra et al.; cited from earlier work
# [2] = system: CHO-Zellen; test: t-PA production in transformed CHO cells, medium with 7.5% FKS, supernatant, direct chromogenic assay (DCA); type: cell-based, chinesische Hamster
# Excerpt: Der Vektor für die t-PA-Produktion wurde in einem Subklon, CHO-K1-DUX B11, integriert (Urlaub et al., Proceedings of the National Academy of Science, USA, 77: 4216-4220, 1980). Diese Zell-Linie, eine Dihydrofolat Reduktase negative Mutante (DHFR-), ist für eine DHFR-abhängige Selektion der transfizierten Zellklone geeignet. Der Vektor für die humane c-DNA kann ein bekannter Plasmid-Vektor pBR-322 oder deren Abkömmling von Escherichia coli sein. Die Promotorregion für das in Frage kommende Gen und für das DHFR-Gen stammt aus SV 40 und die Terminationsregion für beide Gene von einem Hepatitis B-Oberflächenantigen. In den Beispielen wurden CHO-K1-DUX B11-Zellen, die durch die Plasmide pETPER oder pEPEFR transformiert sind, verwendet (siehe EP-A 0117059).
# (§1) Die Zellkulturen werden bei 37°C in einem Hereaus-Brutschrank inkubiert und mit einem Kohlendioxid-Luftgemisch von 7,5% CO₂ in einer relativen Luftfeuchtigkeit von 100% belüftet. Je nach Verfahrensansatz werden unterschiedliche Kulturgefäße benutzt: Spinnergefäße für 100-1000 ml Medium, Roux-Schalen (Nunc) 175 cm² (70-100 ml Medium), 75 cm² (30-50 ml Medium), 25 cm² (7-10 ml Medium) und Mehrfachkulturschalen von Costar mit 2 cm² für 1 ml Kulturen. Für die Stammhaltung werden die Zellen in einer Dichte von 0,2-0,3 x 10⁶ Zellen/ml eingesetzt und alle 2-3 Tage subkloniert.
# Die Protein-Produktion stimulierenden Substanzen können zu den verschiedenen Zeitpunkten jeweils in einer 1:100 Verdünnung zugegeben werden, d.h. sie wurden zuerst in Medium gelöst oder, wenn sie schwerlöslich sind, erst in Äthylalkohol gelöst und danach in Medium zugesetzt und dann das diese Substanz enthaltende Medium dem zellenthaltenden Medium im Verhältnis 1:100 v/v zugegeben.
# In den folgenden Beispielen wurden, um die Stimulierung der t-PA-Synthese hervorzurufen, Zellen einer exponentiell wachsenden Kultur entnommen und in Plastikröhrchen (Falcon) 10 Min. bei 1000 x g in einer Beckmann T 3-6 Zentrifuge abzentrifugiert. Nach Dekantieren des Überstandes wurde das Zellpellet mit frischem Medium resuspendiert.
# (§2) Für die Produktion von t-PA in serumhaltigem Medium wurde als frisches Medium F12/DMEM + 7,5% FKS + Gentamycin verwendet. Die resultierende Suspension kann in 2 cm² 24 Wells-Platten bei einer Zelldichte von 0,2-0,3 x 10⁶ Zellen/ml angesetzt werden.
# Aliquots von Zellüberständen und Zellextrakten wurden zu verschiedenen Zeitpunkten abgenommen bzw. hergestellt. Die Messung der Proben erfolgte entweder sofort oder nach Aufbewahrung bei -20°C mit folgenden Methoden:
# Von dem synthetischen Peptidsubstrat S-2288 (D-H-Ile-Pro-Arg-p-Nitroanilin) der Firma Kabi Diagnostica wird durch das t-PA p-Nitroanilin als Reaktionsprodukt gebildet. Die Aktivität von t-PA ist zur Bildung von p-Nitroanilin proportional, die bei […], 37°C, gemessen wird.
# Die spektrophotometrische Bestimmung der Enzymkinetik wurde mit einem ACP-5010-Analysengerät der Firma Eppendorf automatisch durchgeführt.
# Die Aktivität des Enzyms wurde anhand dieses vorgegebenen Standards berechnet. Eine t-PA-Standardreihe von 1-15 µg/ml wurde mit einem Laborstandard hergestellt, der zu 72% aus 1-kettigem Material besteht.
# Die Substratlösung (100 mM Tris/106 mM NaCl) wurde in einer Konzentration von 50 mM eingesetzt.
# [3] = system: CHO-Zellen; test: Cell growth / cell division of transformed CHO cells; type: cell-based, chinesische Hamster; conditions: compared with Buttersäure
# Description: as §1, §2
# Für die Produktion von t-PA in serumfreiem Medium wurden die Zellen zuvor 3-4 Tage in einem Medium von 1-2% FKS adaptiert, wieder abzentrifugiert und das Zellpellet in serumfreiem Medium resuspendiert und anschließend in 2 cm² 24 Wells-Platten in einer Zelldichte von 0,4-0,5 x 10⁶ Zellen/ml überführt.
# [4] = system: CHO-Zellen; test: Extracellular protein content and [3H]-leucine incorporation in CHO cells, serum-free medium; type: cell-based, chinesische Hamster
Compound,Einfluß auf die Synthese von t-PA [1],"minimal effective concentration ([2]; CHO, read-out: für die t-PA-Stimulierung notwendige Konzentrationen) [µM]","% Steigerung der t-PA-Synthese Durchschnitt ([2]; Table 3, mean ± SE, n = 3-24, production runs of 3 to 4 days, acids added day 0 to 3, 1 ml supernatant vs control (0%), 7,5% FKS)","% Steigerung der t-PA-Synthese Maximum ([2]; Table 3, single sample, 1 ml supernatant vs control (0%), 7,5% FKS, its concentration, addition and sampling day in brackets in Tables 3/3A)","optimaler Dosisbereich ([2]; Table 3, stimulation of t-PA synthesis, medium with 7,5% FKS, bracketed value = concentration of the single (maximum) sample)","Steigerung der t-PA-Produktion ([2]; Table 4, Applikationstag 0, after 48 h growth, 7,5% FKS, 1 mM or 5 mM, 1 ml supernatant vs control (0%), mean ± SE)","Steigerung der t-PA-Produktion ([2]; Table 4, Applikationstag 1, after 48 h growth, 7,5% FKS, 1 mM or 5 mM, 1 ml supernatant vs control (0%), mean ± SE)","Steigerung der t-PA-Produktion ([2]; day 4, medium with 7,5% FKS (Abb. 7))",prozentuale Steigerung niedriger als Buttersäure ([2]; difference to Buttersäure),Hemmung des Zellwachstums [3],Einbau von [³H]-Leucin [4],extrazellulärer Proteingehalt gegenüber der Kontrolle [4]
CCCC(=O)Nc1ncnc2c1ncn2[C@@H]1O[C@@H]2COP(=O)(O)O[C@H]2[C@H]1OC(=O)CCC [Dibutyryl c-AMP],keinen Einfluß,–,–,–,–,–,–,–,–,–,–,–
CCC(=O)O [Propionsäure],–,5000 to 10000,"28,0 ± 2,5%","45,5%",5-10 mM (10 mM),"28,7 ± 9,3%","24,4 ± 4,1%","31,8%",ca. 14%,in geringerem Maße,nur geringfügig gesteigert,nur gering erhöht
